Entries after “also recorded” stand apart in the source; their conditions may differ.
Columns and labels:
Assay type in all cases: cell-based, human
PAX2 protein = test: Western blot analysis of PAX2 protein; conditions: DU145; 5 uM Los, 25 uM U0126, 20 uM PD98059, 250 μM AICAR
Experimental: Briefly, cells were harvested by trypsinization and washed twice with PBS. Lysis buffer was prepared according to the manufacturer's instructions (Sigma), and was then added to the cells. Following a 15 minute incubation period at 4° C. on an orbital shaker, cell lysate were then collected and centrifuged for 10 minutes at 12000×g to pellet cellular debris. The protein-containing supernatant were then collected and quantitated. Next, 25 μg protein extract was loaded onto an 8-16% gradient SDS-PAGE (Novex). Following electrophoresis, proteins were transferred to PVDF membranes, and then blocked with 5% nonfat dry milk in TTBS (0.05% Tween 20 and 100 mM Tris-C1) for 1 hour. Blots were then probed with rabbit anti-PAX2 primary antibody (Zymed, San Francisco, Calif.) at a 1:2000 dilution. After washing, the membranes were incubated with anti-rabbit antibody conjugated to horseradish peroxidase (HRP) (dilution 1:5000; Sigma), and signal detection was visualized using chemilluminescence reagents (Pierce) on an Alpha Innotech Fluorchem 8900. As a control, blots were stripped and reprobed with mouse anti-β-actin primary antibody (1:5000; Sigma-Aldrich) and HRP-conjugated anti-mouse secondary antibody (1:5000; Sigma-Aldrich) and signal detection was again visualized.
(§1) Western blot analysis was performed as described in Example 2. Blots were then probed with primary antibody (anti-PAX2, -phospho-PAX2, -JNK, -phospho-JNK, -ERK1/2, or -phospho-ERK1/2) (Zymed, San Francisco, Calif.) at 1:1000-2000 dilutions. After washing, the membranes were incubated with anti-rabbit antibody conjugated to horseradish peroxidase (HRP) (dilution 1:5000; Sigma), and signal detection was visualized using chemilluminescence reagents (Pierce) on an Alpha Innotech Fluorchem 8900. As a control, blots were stripped and re-probed with mouse anti-β-actin primary antibody (1:5000; Sigma-Aldrich) and HRP-conjugated anti-mouse secondary antibody (1:5000; Sigma-Aldrich), and signal detection was again visualized.

phospho-STAT3 = test: Western blot of phospho-STAT3; conditions: DU145
Experimental: as §1, with “Blots were then probed with primary antibody (anti-PAX2, -phospho-PAX2, -JNK, -phospho-JNK, -ERK1/2, or -phospho-ERK1/2) (Zymed, San Francisco, Calif.) at 1:1000-2000 dilutions.” left out

phospho-PAX2 = test: Western blot of phospho-PAX2; conditions: DU145
Experimental: as §1, with “Blots were then probed with primary antibody (anti-PAX2, -phospho-PAX2, -JNK, -phospho-JNK, -ERK1/2, or -phospho-ERK1/2) (Zymed, San Francisco, Calif.) at 1:1000-2000 dilutions.” left out

phospho-JNK = test: Western blot of phospho-JNK; conditions: DU145
Experimental: as §1, with “Blots were then probed with primary antibody (anti-PAX2, -phospho-PAX2, -JNK, -phospho-JNK, -ERK1/2, or -phospho-ERK1/2) (Zymed, San Francisco, Calif.) at 1:1000-2000 dilutions.” left out

DU145 cells = test: [3H]thymidine incorporation proliferation assay
Experimental: Proliferation of cells was determined by [^3H] thymidine ribotide ([3H]TdR) incorporation into DNA. 0.5×10^6 cells/well of suspension DU145 cells were plated in their appropriate media. Cells were incubated for 72 h with or without the presence of AngII at the indicated concentrations. Cells were exposed to 37 kBq/ml [methyl-3H]thymidine in the same medium for 6 h. The adherent cells were fixed by 5% trichloroacetic acid and lysed in SDS/NaOH lysis buffer overnight. Radioactivity was measured by Beckman LS3801 liquid scintillation counter (Canada). Suspension cell cultures were harvested by cell harvester (Packard Instrument Co., Meriden, Conn.), and radioactivity was measured by 1450 microβ liquid scintillation counter (PerkinElmer Life Sciences).

PAX2 = PAX2 expression after treatment with AngII or receptor blockers; conditions: for reduction of PAX2 expression: versus untreated control
Experimental: Western blot analysis was performed as described in Example 2. […] After washing, the membranes were incubated with anti-rabbit antibody conjugated to horseradish peroxidase (HRP) (dilution 1:5000; Sigma), and signal detection was visualized using chemilluminescence reagents (Pierce) on an Alpha Innotech Fluorchem 8900. As a control, blots were stripped and re-probed with mouse anti-β-actin primary antibody (1:5000; Sigma-Aldrich) and HRP-conjugated anti-mouse secondary antibody (1:5000; Sigma-Aldrich), and signal detection was again visualized. Quantitative real-time RT-PCR was performed as described in Example 1 to verify changes in gene expression following PAX2 knockdown in PC3 and DU145 prostate cancer cell lines and the hPrEC normal prostate epithelial cells. Forty cycles of PCR were performed under standard conditions using an annealing temperature of 60° C. Quantification was determined by the cycle number where exponential amplification began (threshold value) and averaged from the values obtained from the triplicate repeats. There was an inverse relationship between message level and threshold value. In addition, GAPDH was used as a housekeeping gene to normalize the initial content of total cDNA. Relative expression was calculated as the ratio between each genes and GAPDH. All reactions were carried out in triplicate.

phospho-ERK 1/2 = test: Western blot of phospho-ERK 1/2; conditions: DU145
Experimental: as §1, with “Blots were then probed with primary antibody (anti-PAX2, -phospho-PAX2, -JNK, -phospho-JNK, -ERK1/2, or -phospho-ERK1/2) (Zymed, San Francisco, Calif.) at 1:1000-2000 dilutions.” left out

ERK = test: Western blot of ERK; conditions: DU145
Experimental: as §1, with “Blots were then probed with primary antibody (anti-PAX2, -phospho-PAX2, -JNK, -phospho-JNK, -ERK1/2, or -phospho-ERK1/2) (Zymed, San Francisco, Calif.) at 1:1000-2000 dilutions.” left out

DEFB1 = test: QRT-PCR of DEFB1 (hBD-1) expression; conditions: 10 μM
Experimental: Briefly, total RNA was isolated using the SV Total RNA Isolation System (Promega, Madison, Wis.) from approximately 1×10^6 cells harvested by trypsinizing. Cells were lysed and total RNA was isolated by centrifugation through spin columns. For cells collected by LCM, total RNA was isolated using the PicoPure RNA Isolation Kit (Arcturus Biosciences, Mt. View, Calif.) following the manufacturer's protocol. Total RNA (0.5 μg per reaction) from both sources was reverse transcribed into cDNA utilizing random primers (Promega). AMV Reverse Transcriptase II enzyme (500 units per reaction; Promega) was used for first strand synthesis and Tfl DNA Polymerase for second strand synthesis (500 units per reaction; Promega) as per the manufacturer's protocol. In each case, 50 pg of cDNA was used per ensuing PCR reaction. Two-step QRT-PCR was performed on cDNA generated using the MultiScribe Reverse Transcripatase from the TaqMan Reverse Transcription System and the SYBR® Green PCR Master Mix (Applied Biosystems).
Forty cycles of PCR were performed under standard conditions using an annealing temperature of 56° C. In addition, β-actin (Table 2) was amplified as a housekeeping gene to normalize the initial content of total cDNA. […]
Quantitative real-time RT-PCR was performed as described in Example 1 to verify changes in gene expression following PAX2 knockdown in PC3 and DU145 prostate cancer cell lines and the hPrEC normal prostate epithelial cells. […] Quantification was determined by the cycle number where exponential amplification began (threshold value) and averaged from the values obtained from the triplicate repeats. […] Relative expression was calculated as the ratio between each genes and GAPDH. […]
QRT-PCR was performed as previously described (Gibson et al., 2007). […] Gene expression in benign prostate tissue samples was calculated as the expression ratio compared to β-actin. Levels of hBD-1 expression in malignant prostate tissue, hPREC prostate primary culture, and prostate cancer cell lines before and after induction were calculated relative to the average level of hBD-1 expression in hPrEC cells. […]

PAX2 expression (PAX2; DU145, 30 min to 48 hour AngII treatment) | Compound | PAX2 expression / protein levels (PAX2 protein) | phospho-STAT3 protein levels (phospho-STAT3) | phospho-PAX2 protein levels (phospho-PAX2) | phospho-JNK protein levels (phospho-JNK) | decrease in proliferation rate (DU145 cells; DU145) | effect on AngII-induced proliferation (DU145 cells; DU145, pre-treating for 30 min) | effect on AngII effect on PAX2 expression (PAX2; DU145) | reduction of PAX2 expression (PAX2; DU145, 48 hours) | reduction of PAX2 expression (PAX2; DU145, 72 hours) | phospho-ERK (phospho-ERK 1/2) | ERK protein levels (ERK) | decrease in DEFB1 expression relative to untreated hPrEC cells (DEFB1; 72 hours) | decrease in DEFB1 expression relative to untreated hPrEC cells (DEFB1; 96 hours) | increase in DEFB1 relative to untreated hPrEC cells (DEFB1; 96 hours) | proliferation rate (DU145 cells; DU145, AngII treatment) | increase in PAX2 expression relative to untreated hPrEC cells (PAX2; hPrEC, 10 μM, 72 hours) | PAX2 expression in hPrEC as % of PAX2 levels in PC3 cells (PAX2; hPrEC, 72 hours) | PAX2 expression in hPrEC as % of PAX2 expression in PC3 cells (PAX2; hPrEC, 96 hours)
 | N#CC(=C(/N)Sc1ccccc1N)/C(C#N)=C(\N)Sc1ccccc1N [Drug U0126, U0126] | significant reduction of PAX2 expression; also recorded: suppress PAX2 protein levels | reduced phospho-STAT3 protein levels; also recorded: suppress phospho-STAT3 protein levels | significant decrease or suppression of phospho-PAX2 protein levels; also recorded: suppress phospho-PAX2 protein expression levels | did not decrease phospho-JNK protein levels; also recorded: failed to decrease phospho-JNK protein levels |  |  |  |  |  |  |  |  |  |  |  |  |  | 
 | CCCCc1nc(Cl)c(CO)n1Cc1ccc(-c2ccccc2-c2nn[nH]n2)cc1 [Los, Losartan] | significant reduction of PAX2 expression; also recorded: suppress PAX2 protein levels | reduced phospho-STAT3 protein levels; also recorded: suppress phospho-STAT3 protein levels | significant decrease or suppression of phospho-PAX2 protein levels; also recorded: suppress phospho-PAX2 protein expression levels | did not decrease phospho-JNK protein levels; also recorded: failed to decrease phospho-JNK protein levels | 50% | suppressed the effect of AngII on proliferation | blocks the effect of Angiotensin II (AngII) effect on PAX2 expression | 37% | 50% | reduced the amount of phospho-ERK; also recorded: suppresses phospho-ERK 1/2 and PAX2 protein levels | no effect on ERK protein levels |  |  |  |  |  |  | 
progressively increased over time | Angiotensin II (DRVYIHPF) [AngII] |  |  |  |  |  |  |  |  |  |  |  | 35% | 50% | 79% | two- to three-fold increase; also recorded: increases DU145 cell proliferation | 66% | 77% | 89%
